Values of other authors in patent US7354941B2, “Nicotinamide benzofused-heterocyclyl derivatives useful as selective inhibitors of PDE4 isozymes” (Pfizer Products Inc., priority 2000, dated 2008).
Like-named read-outs stand apart in the source and are kept apart here.

Key:
[1] = system: PDE4; conditions: cited from earlier work
[2] = system: TNFproduction; conditions: read-out: IC50, TNF production; cited from earlier work
[3] = system: canine tracheal PDE4; conditions: at 100 nM; cited from earlier work
[4] = system: PDE4 derived from tumor cells; conditions: cited from earlier work
[5] = system: tumor cells; conditions: cited from earlier work
[6] = system: patients with bronchial asthma; conditions: cited from earlier work
[7] = system: high-affinity rolipram binding site (Sr); conditions: cited from earlier work
[8] = system: catalytic site (Sc); conditions: compared with SB-207,499; cited from earlier work
[9] = 54 subjects, doses up to 400 mg; cited from earlier work
[10] = rat; cited from earlier work
[11] = rat; cited from earlier work; remark: listed apart in the source
[12] = system: PDE4 in U937 cells; conditions: cited from earlier work
[13] = system: antigen-induced eosinophilia; conditions: rat; cited from earlier work
[14] = system: early phase bronchoconstriction; conditions: in vivo; cited from earlier work
[15] = system: guinea-pig lung PDE4; conditions: cited from earlier work
[16] = system: antigen-induced bronchoconstriction; conditions: guinea-pig; cited from earlier work
[17] = system: LPS-stimulated ex vivo TNF release and PHA induced lymphocyte proliferation; conditions: oral dose of 300 mg; cited from earlier work
[18] = system: bronchitis; conditions: in vivo; cited from earlier work
[19] = standard in vitro guinea-pig models of asthma; cited from earlier work
[20] = system: human peripheral blood mononuclear cells (HPBM); conditions: normal patients and subjects with atopic dermatitis; cited from earlier work
[21] = system: lipopolysaccharide-induced bowel erythrocyte extravasation; conditions: cited from earlier work; for lipopolysaccharide-induced bowel erythrocyte extravasation: pretreatment i.p. 3×, rats; for lipopolysaccharide induced erythrocyte extravasation in rats and intestinal hypoperfusion in dogs: rat, in vivo
[22] = system: lipopolysaccharide-induced mesenteric blood flow fall; conditions: dog, in vivo; cited from earlier work
[23] = system: bone loss; conditions: serial oral administrations; cited from earlier work
[24] = system: bone marrow culture; conditions: cited from earlier work
[25] = system: collagen II induced arthritis; conditions: cited from earlier work
[26] = system: PBMC; conditions: cited from earlier work
[27] = system: croton oil-induced ear inflammation; conditions: mouse; cited from earlier work
[28] = system: experimental allergic encephalomyelitis; conditions: marmoset; cited from earlier work
[29] = system: chronic relapsing experimental allergic encephalomyelitis; conditions: SJL mice; cited from earlier work
[30] = system: colitis; conditions: rat; cited from earlier work
[31] = system: T-cell mediated hepatic failure; conditions: cited from earlier work
[32] = system: isolated pulmonary artery rings; conditions: rings from normal rats and rats with hypoxia-induced pulmonary hypertension; cited from earlier work

COc1ccc(C(CC(N)=O)N2C(=O)c3ccccc3C2=O)cc1OC1CCCC1 (centres unmarked) [(0.0.32)]
IC50 [1]: 0.042 nM | IC50 [2]: 130 nM

COc1ccc(C(=O)Cc2c(Cl)c[n+]([O-])cc2Cl)c2c1OCCCCO2 [(0.0.49)]
inhibition of canine tracheal PDE4 [3]: almost complete inhibition

Clc1nc2c(N3CCCC3)nc(N3CCNCC3)nc2nc1NCc1ccccc1 [(0.0.55)]
IC50 [4]: 16 nM | growth of tumor cells [5]: inhibit the growth of tumor cells at micromolar concentrations

COc1ccc([C@H](Cc2ccncc2)c2ccccc2)cc1OC1CCCC1 [CDP840]
late reactions to inhaled allergen ([6]; 9.5 days oral, 15 and 30 mg): suppression of late reactions to inhaled allergen | adverse events of nausea or headache ([6]; human, in vivo): without any adverse events of nausea or headache | late-phase response in the treatment of asthma ([6]; human, in vivo): significant inhibition of late-phase response | affinity at the Sr [7]: comparatively low affinity at the Sr | potency at the Sc [8]: significantly higher potency at the Sc than does SB-207,499

Cc1cc2c3c(c1)C(c1ccccc1)=N[C@@H](NC(=O)c1ccncc1)C(=O)N3CC2 [CI-1018]
adverse events [9]: no adverse events were reported | oral bioavailability [10]: 57% | ED50, oral potency [11]: 5 mg/kg | IC50 [12]: 1100 nM | inhibition of antigen-induced eosinophilia [13]: active

CCOc1cc2cc(CO)c(CO)c(-c3ccn(CCOC)c(=O)c3)c2cc1OCC [Example T-440]
inhibition of early and late phase bronchoconstriction, BAL eosinophilia, ozone-induced AHR and airway epithelial injury [14]: activity

CCOc1cc2cc(CO)c(CO)c(-c3ccnc(-n4nc(-c5cccnc5)c5ccccc5c4=O)c3)c2cc1OCC [Example T-2585]
IC50 [15]: 0.13 nM

CCNc1ncn(Cc2ccc(OC)c(OC3CCCC3)c2)c2nc(C(C)C)nc1-2 [Example V-11294A]
inhibition of antigen-induced bronchoconstriction [16]: active | TNF levels and lymphocyte proliferation [17]: effective in reducing TNF levels and lymphocyte proliferation

Cc1c[n+]([O-])ccc1CC(c1ccc(C(O)(C(F)(F)F)C(F)(F)F)cc1)c1ccc(OC(F)F)c(OC(F)F)c1 [L-826,141]
activity in a rat model of bronchitis [18]: activity

O=C(Nc1c(Cl)cncc1Cl)c1ccc(OC(F)F)c(OCC2CC2)c1 [Roflumilast]
IC50 [19]: 3.5 nM

CCCCn1c(=O)c2c(ncn2CC(C)=O)n(CCCC)c1=O [denbufylline]
inhibition of the proliferation of HPBM [20]: concentration-related inhibition | lipopolysaccharide-induced bowel erythrocyte extravasation [21]: reduces lipopolysaccharide-induced bowel erythrocyte extravasation | lipopolysaccharide induced erythrocyte extravasation in rats and intestinal hypoperfusion in dogs [21]: attenuated | potency relative to pentoxifylline in inhibiting mesenteric blood flow fall [22]: 100 fold | bone mineral density of femurs [23]: inhibit the decrease in the bone mineral density of femurs | mineralized nodules and osteoclast-like cells [24]: increase in the number of mineralized nodules and a decrease in the number of osteoclast-like cells

COc1ccc(C2CNC(=O)C2)cc1OC1CCCC1 (centres unmarked) [rolipram]
appearance of arthritic symptoms ([25]; 2 mg/kg twice daily for five days before the onset of arthritis): significantly delayed the appearance of arthritic symptoms | development of the disease, arthritis severity ([25]; 3 mg/kg twice daily when arthritis was apparent): progression of severity was halted | TNF-α and IFN mRNA expression in regional lymph nodes ([25]; rat, in vivo): strong down-regulation of TNF-α and IFN7 mRNA expression | inhibition of the proliferation of HPBM [20]: concentration-related inhibition | IC50 ([26]; PHA stimulated atopic dermatitis PBMC proliferation): 280 nM | IC50 ([26]; PHA stimulated normal PBMC proliferation): 2600 nM | topical doses inhibiting croton oil-induced ear inflammation (as low as) [27]: 0.03 mg per ear | clinical signs and MRI abnormalities [28]: suppress the appearance of clinical signs and abolish abnormalities in MRI imaging | clinical signs and pathological changes [29]: ameliorates clinical signs and pathological changes | effects in dextran sulfate induced colitis model [30]: beneficial effects comparable to prednisolone | lipopolysaccharide-induced bowel erythrocyte extravasation [21]: reduces lipopolysaccharide-induced bowel erythrocyte extravasation | lipopolysaccharide induced erythrocyte extravasation in rats and intestinal hypoperfusion in dogs [21]: attenuated | plasma TNF-α and INF-γ concentrations ([31]; 0.1 to 10 mg/kg i.p. 30 minutes before challenge): significantly reduce plasma TNF-α and INF-γ concentrations | IL-10 levels ([31]; 0.1 to 10 mg/kg i.p.): significantly elevates IL-10 levels | plasma activities of ALT, AST, and SDH ([31]; 0.1 to 10 mg/kg i.p.): dose-dependently inhibited | concanavalin A-induced IL4 release ([31]; mouse, in vivo): suppress concanavalin A-induced IL4 release | relaxant activities of isoproterenol and forskolin [32]: potentiates the relaxant activities of isoproterenol and forskolin
